Results taken from patent US6737383B1, “Herbicidal oxadiazolidines” (priority 1999, dated 2004).

Experiments:
corn = test: Test B pre/postemergence corn; type: in vivo, Zea mays
Procedure, shortened: (§1)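 Herbicidal effect was estimated by eye on a ten-point control scale after plants spent twelve to sixteen days in a greenhouse following soil or foliar treatment. Foliar sprays targeted plants at one to four leaves; all doses were formulated in a non-phytotoxic solvent with surfactant.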

crabgrass = test: Test B pre/postemergence crabgrass; type: in vivo, Digitaria sanguinalis
Procedure, shortened: as §1

sugar beet = test: Test B pre/postemergence sugar beet; type: in vivo, Beta vulgaris
Procedure, shortened: as §1

rice = test: Test B flood test rice; type: in vivo, Oryza sativa
Procedure, shortened: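 Each value is a visual injury score relative to controls, with 10 meaning complete control and 0 no effect. Evaluation took place twelve to sixteen days after the 2-leaf-stage plants were treated and kept in the greenhouse.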

bermuda-grass = test: Test D bermudagrass; type: in vivo, Cynodon dactylon; conditions: Preemergence, 0 to 100 scale
Procedure, shortened: (§2)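 Scoring used a 0–100 visual injury scale, with 0 meaning no effect and 100 complete control, assessed 14–21 days after application alongside untreated pots. Preemergence treatments went onto sandy loam surfaces of separately potted seeds within a day of sowing.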

common groundsel = test: Test D common groundsel; type: in vivo, Senecio vulgaris; conditions: Preemergence, 0 to 100 scale
Procedure, shortened: as §2

goosegrass = test: Test D goosegrass; type: in vivo, Eleusine indica; conditions: Preemergence, 0 to 100 scale
Procedure, shortened: as §2

pitted morningglory = test: Test D pitted morningglory; type: in vivo, Ipomoea lacunosa; conditions: Preemergence, 0 to 100 scale
Procedure, shortened: as §2

purple nutsedge = test: Test D purple nutsedge; type: in vivo, Cyperus rotundus; conditions: Preemergence, 0 to 100 scale
Procedure, shortened: as §2

surinam grass = test: Test D surinam grass; type: in vivo, Brachiaria decumbens; conditions: Preemergence, 0 to 100 scale
Procedure, shortened: as §2

winter wheat [1] = test: Test E winter wheat; type: in vivo, Triticum aestivum; conditions: Postemergence; for Plant response rating, Wheat (winter): 0 to 100 scale
Procedure, shortened: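 For postemergence, plants at the 1- to 4-leaf stage, in a 60:40 mix of sandy loam and potting mix, treated with compound formulated in a surfactant-containing non-phytotoxic solvent. Visual assessment versus untreated controls followed roughly 21–28 days in the greenhouse.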

blackgrass = test: Test E blackgrass; type: in vivo, Alopecurus myosuroides; conditions: Preemergence
green foxtail = test: Test E green foxtail; type: in vivo, Setaria viridis; conditions: Preemergence
Italian ryegrass = test: Test E Italian ryegrass; type: in vivo, Lolium multiflorum; conditions: Preemergence
winter wheat [2] = test: Test E winter wheat; type: in vivo, Triticum aestivum; conditions: Preemergence
wild oat = test: Test E wild oat; type: in vivo, Avena fatua; conditions: Preemergence
winter barley = test: Test E winter barley; type: in vivo, Hordeum vulgare; conditions: Preemergence
[3] = Postemergence, Rate 125 g/ha, scale of 0 to 10 where 0 is no effect and 10 is complete control
[4] = Preemergence, Rate 31 g/ha, visual rating, scale 0 to 10 (0 no effect, 10 complete control)
[5] = Preemergence, Rate 62 g/ha, scale 0 to 10 (0 no effect, 10 complete control)
[6] = Preemergence, Rate 125 g/ha, 0 is no effect, 10 is complete control
[7] = Preemergence, Rate 250 g/ha, scale 0 to 10, 0 is no effect, 10 is complete control
[8] = Preemergence, Rate 500 g/ha, scale 0 to 10 (0 no effect, 10 complete control)
[9] = Rate 31 g/ha, Postemergence, scale 0 to 10
[10] = Rate 62 g/ha, Postemergence, scale of 0 to 10 where 0 is no effect and 10 is complete control
[11] = Rate 250 g/ha, Postemergence, scale 0 to 10, 0 is no effect, 10 is complete control
[12] = Rate 500 g/ha, Postemergence, scale 0 to 10
[13] = Rate 16 g/ha, 0 no injury, 100 complete control
[14] = Rate 32 g/ha, 0 no injury, 100 complete control
[15] = Rate 64 g/ha, 0 no injury, 100 complete control
[16] = Rate 125 g/ha, 0 no injury, 100 complete control
[17] = Rate 31 g/ha, 0 to 100 scale, 0 no effect, 100 complete control
[18] = Rate 62 g/ha, 0 to 100 scale, 0 no effect, 100 complete control
[19] = Rate 125 g/ha, 0 to 100 scale (0 no effect, 100 complete control)
[20] = Rate 500 g/ha, 0 to 100 scale where 0 is no effect and 100 is complete control

C=CCn1c(=O)on(C(=O)N(c2ccc(F)cc2)C(C)C)c1=O [Compound 146]
Corn plant response rating (corn; [3]): 0
Corn plant response rating (corn; [4]): 0
Corn plant response rating (corn; [5]): 3
Corn plant response rating (0 to 10 scale) (corn; [6]): 5
Corn plant response rating (corn; [7]): 8
Corn plant response rating (corn; [8]): 9
Corn plant response rating (corn; [9]): 0
Corn plant response rating (corn; [10]): 0
Plant response rating, Corn (corn; [11]): 0
Corn plant response rating (corn; [12]): 0
Crabgrass plant response rating (crabgrass; [3]): 9
Crabgrass plant response rating (crabgrass; [4]): 5
Crabgrass plant response rating (crabgrass; [5]): 8
Crabgrass plant response rating (0 to 10 scale) (crabgrass; [6]): 8
Crabgrass plant response rating (crabgrass; [7]): 9
Crabgrass plant response rating (crabgrass; [8]): 10
Crabgrass plant response rating (crabgrass; [9]): 5
Crabgrass plant response rating (crabgrass; [10]): 8
Plant response rating, Crabgrass (crabgrass; [11]): 9
Crabgrass plant response rating (crabgrass; [12]): 9
Sugarbeets plant response rating (sugar beet; [3]): 3
Sugarbeets plant response rating (sugar beet; [4]): 5
Sugarbeets plant response rating (sugar beet; [5]): 8
Sugarbeets plant response rating (0 to 10 scale) (sugar beet; [6]): 9
Sugarbeets plant response rating (sugar beet; [7]): 10
Sugarbeets plant response rating (sugar beet; [8]): 10
Sugarbeets plant response rating (sugar beet; [10]): 1
Plant response rating, Sugarbeets (sugar beet; [11]): 4
Sugarbeets plant response rating (sugar beet; [12]): 6
Rice plant response rating (rice; Postemergence (flood test species), Rate 125 g/ha, scale of 0 to 10 where 0 is no effect and 10 is complete control): 0
Rice plant response rating (rice; Rate 31 g/ha, Postemergence section (flood test species), scale 0 to 10): 0
Rice plant response rating (rice; Rate 62 g/ha, Postemergence section, flood test species, scale of 0 to 10 where 0 is no effect and 10 is complete control): 0
Rice plant response rating (rice; Rate 62 g/ha, headed Pre-emergence (flood test species), scale 0 to 10 (0 no effect, 10 complete control)): 0
Rice plant response rating (rice; Rate 125 g/ha, Pre-emergence, flood test species, scale 0 to 10 where 0 is no effect and 10 is complete control): 0
Plant response rating, Rice (rice; Rate 250 g/ha, Postemergence (flood test), scale 0 to 10, 0 is no effect, 10 is complete control): 2
Rice plant response rating (rice; Rate 250 g/ha, Pre-emergence, flood-test species, scale 0 to 10, 0 is no effect, 10 is complete control): 0
Plant response rating, Rice (rice; Rate 500 g/ha, headed Pre-emergence (flood test species), scale 0 to 10 (0 no effect, 10 complete control)): 0
Rice plant response rating (rice; Rate 500 g/ha, listed under Postemergence (flood test species), scale 0 to 10): 7
Plant response rating, Bermudagrass (bermuda-grass; [13]): 65
Plant response rating, Bermudagrass (bermuda-grass; [14]): 100
Plant response rating, Bermudagrass (bermuda-grass; [15]): 95
Plant response rating, Bermudagrass (bermuda-grass; [16]): 90
Plant response rating, Bermudagrass (bermuda-grass; Rate 250 g/ha): 90
Plant response rating, Bermudagrass (bermuda-grass; Rate 500 g/ha): 100
Plant response rating, Com. groundsel (common groundsel; [13]): 65
Plant response rating, Com. groundsel (common groundsel; [14]): 0
Plant response rating, Com. groundsel (common groundsel; [15]): 0
Plant response rating, Com. groundsel (common groundsel; [16]): 75
Plant response rating, Com. groundsel (common groundsel; Rate 250 g/ha): 85
Plant response rating, Com. groundsel (common groundsel; Rate 500 g/ha): 100
Plant response rating, Goosegrass (goosegrass; [13]): 90
Plant response rating, Goosegrass (goosegrass; [14]): 98
Plant response rating, Goosegrass (goosegrass; [15]): 100
Plant response rating, Goosegrass (goosegrass; [16]): 100
Plant response rating, Goosegrass (goosegrass; Rate 250 g/ha): 100
Plant response rating, Goosegrass (goosegrass; Rate 500 g/ha): 100
Plant response rating, P. morninglory (pitted morningglory; [13]): 0
Plant response rating, P. morninglory (pitted morningglory; [14]): 0
Plant response rating, P. morninglory (pitted morningglory; [15]): 0
Plant response rating, P. morninglory (pitted morningglory; [16]): 0
Plant response rating, P. morninglory (pitted morningglory; Rate 250 g/ha): 0
Plant response rating, P. morninglory (pitted morningglory; Rate 500 g/ha): 20
Plant response rating, Purple nutsedge (purple nutsedge; [13]): 40
Plant response rating, Purple nutsedge (purple nutsedge; [14]): 40
Purple nutsedge plant response rating (purple nutsedge; [15]): 65
Purple nutsedge plant response rating (purple nutsedge; [16]): 70
Plant response rating, Purple nutsedge (purple nutsedge; Rate 250 g/ha): 75
Plant response rating, Purple nutsedge (purple nutsedge; Rate 500 g/ha): 100
Plant response rating Surinam grass (surinam grass; [13]): 40
Plant response rating Surinam grass (surinam grass; [14]): 60
Surinam grass plant response rating (surinam grass; [15]): 60
Surinam grass plant response rating (surinam grass; [16]): 100
Plant response rating Surinam grass (surinam grass; Rate 250 g/ha): 100
Plant response rating Surinam grass (surinam grass; Rate 500 g/ha): 100
Plant response rating, Wheat (winter) (winter wheat [1]; Rate 31 g/ha, 0 no effect, 100 complete control): 30
Plant response rating, Wheat (winter) (winter wheat [1]; Rate 62 g/ha): 20
Plant response rating, Wheat (winter) (winter wheat [1]; Rate 125 g/ha): 40
Plant response rating, Wheat (winter) (winter wheat [1]; Rate 500 g/ha, 0 no effect, 100 complete control): 20
Wheat (winter) plant response rating (winter wheat [1]; Rate 250 g/ha, 0 to 100 scale where 0 is no effect and 100 is complete control): 60
Plant response rating, Blackgrass (blackgrass; [17]): 20
Plant response rating, Blackgrass (blackgrass; [18]): 70
Plant response rating, Blackgrass (blackgrass; [19]): 85
Blackgrass plant response rating (0 to 100 scale) (blackgrass; Rate 250 g/ha): 90
Plant response rating, Blackgrass (blackgrass; [20]): 70
Plant response rating, Green foxtail (green foxtail; [17]): 50
Plant response rating, Green foxtail (green foxtail; [18]): 55
Plant response rating, Green foxtail (green foxtail; [19]): 50
Green foxtail plant response rating (0 to 100 scale) (green foxtail; Rate 250 g/ha): 65
Plant response rating, Green foxtail (green foxtail; [20]): 100
Plant response rating, I. Ryegrass (Italian ryegrass; [17]): 50
Plant response rating, I. Ryegrass (Italian ryegrass; [18]): 40
Plant response rating, I. Ryegrass (Italian ryegrass; [19]): 50
I. Ryegrass plant response rating (0 to 100 scale) (Italian ryegrass; Rate 250 g/ha): 60
Plant response rating, I. Ryegrass (Italian ryegrass; [20]): 90
Plant response rating, Wheat (winter) (winter wheat [2]; [17]): 20
Plant response rating, Wheat (winter) (winter wheat [2]; [18]): 0
Plant response rating, Wheat (winter) (winter wheat [2]; [19]): 10
Wheat (winter) plant response rating (0 to 100 scale) (winter wheat [2]; Rate 250 g/ha): 0
Plant response rating, Wheat (winter) (winter wheat [2]; [20]): 100
Plant response rating, Wild oat (wild oat; [17]): 40
Plant response rating, Wild oat (wild oat; [18]): 25
Plant response rating, Wild oat (wild oat; [19]): 30
Wild oat plant response rating (0 to 100 scale) (wild oat; Rate 250 g/ha): 50
Plant response rating, Wild oat (wild oat; [20]): 85
Plant response rating, Barley (winter) (winter barley; [17]): 20
Plant response rating, Barley (winter) (winter barley; [18]): 10
Plant response rating, Barley (winter) (winter barley; [19]): 10
Barley (winter) plant response rating (0 to 100 scale) (winter barley; Rate 250 g/ha): 10
Plant response rating, Barley (winter) (winter barley; [20]): 95
